Article PMC8597734 (Antimicrobial Agents and Chemotherapy, 2021)
Values after ≈ are worked out from the molar mass of the structure shown. Where two headings read alike, the source gives them in different places.

Assays:
[1] = tested on: M. tuberculosis H37Rv ATCC 27294; experiment: microbe, parasite or virus in culture; format: cell-based; conditions: Mycobacterium tuberculosis, 168 h
[2] = tested on: M. abscessus subsp. abscessus M337; experiment: microbe, parasite or virus in culture; format: cell-based, Mycobacterium abscessus; conditions: Mycobacteroides abscessus, 72 h
[3] = tested on: M. abscessus subsp. massiliense CCUG 48898T; experiment: microbe, parasite or virus in culture; format: cell-based, Mycobacterium abscessus; conditions: Mycobacteroides abscessus, 72 h
[4] = tested on: M. abscessus subsp. abscessus M404; experiment: microbe, parasite or virus in culture; format: cell-based, Mycobacterium abscessus; conditions: Mycobacteroides abscessus, 72 h
[5] = tested on: M. abscessus Bamboo RM3 (GyrA D91N); experiment: microbe, parasite or virus in culture; format: cell-based, Mycobacterium abscessus; conditions: Mycobacteroides abscessus
[6] = tested on: M. abscessus subsp. abscessus M422; experiment: microbe, parasite or virus in culture; format: cell-based, Mycobacterium abscessus; conditions: Mycobacteroides abscessus, 72 h
[7] = tested on: M. abscessus ATCC 19977 MXF_R1 (GyrA D96Y); experiment: microbe, parasite or virus in culture; format: cell-based, Mycobacterium abscessus
[8] = tested on: M. abscessus subsp. abscessus ATCC 19977; experiment: microbe, parasite or virus in culture; format: cell-based, Mycobacterium abscessus; conditions: Mycobacteroides abscessus
[9] = tested on: M. avium 11; experiment: microbe, parasite or virus in culture; format: cell-based; conditions: Mycobacterium avium, 11, 96 h
[10] = tested on: M. abscessus Bamboo RM1 (GyrA M129K); experiment: microbe, parasite or virus in culture; format: cell-based, Mycobacterium abscessus; conditions: Mycobacteroides abscessus
[11] = tested on: M. abscessus subsp. abscessus K21; experiment: microbe, parasite or virus in culture; format: cell-based, Mycobacterium abscessus; conditions: Mycobacteroides abscessus, 72 h
[12] = tested on: M. abscessus subsp. bolletii CCUG 50184T; experiment: microbe, parasite or virus in culture; format: cell-based, Mycobacterium abscessus; conditions: Mycobacteroides abscessus, 72 h
[13] = tested on: M. abscessus subsp. bolletii M506; experiment: microbe, parasite or virus in culture; format: cell-based, Mycobacterium abscessus; conditions: Mycobacteroides abscessus, 72 h
[14] = tested on: M. abscessus subsp. abscessus K21; experiment: M. abscessus mouse infection model; format: in vivo, Mycobacterium abscessus; conditions: NOD SCID mice, intranasal infection
Experimental: In vivo efficacy determinations were carried out as described previously, using 8-week-old female NOD.CB17-Prkdc^scid/NCrCrl (NOD SCID) mice (Charles River Laboratories) and the M. abscessus subsp. abscessus K21 strain ([48]). Briefly, anesthetized animals were infected by intranasal delivery of ∼10^6 CFU of M. abscessus subsp. abscessus K21. Acute infection was achieved within 1 day. Drugs or the vehicle control was administered to NOD SCID mice once daily for 10 consecutive days by oral gavage, starting from 1 day postinfection. Clarithromycin was formulated in 0.4% methyl cellulose–sterile water and administered at a dose of 250 mg/kg. […] EC/11716 was formulated in 0.4% methyl cellulose–sterile water and administered at 400 mg/kg. All mice were euthanized 24 h after the last dose (11 days postinfection), and their lungs and spleen were aseptically removed prior to homogenization. The bacterial load in these organs was determined by plating serial dilutions of the organ homogenates onto Middlebrook 7H11 agar (BD Difco) supplemented with 0.2% (vol/vol) glycerol and 10% (vol/vol) OADC. The agar plates were incubated for 5 days at 37°C prior to counting of colonies. All studies were conducted in accordance with the GSK Policy on the Care, Welfare and Treatment of Laboratory Animals and were reviewed the Institutional Animal Care and Use Committee either at GSK or by the ethical review process at the institution where the work was performed. All experiments involving live animals were approved by the Institutional Animal Care and Use Committee of the Center for Discovery and Innovation, Hackensack Meridian Health.

[15] = tested on: M. abscessus subsp. massiliense M111; experiment: microbe, parasite or virus in culture; format: cell-based, Mycobacterium abscessus; conditions: Mycobacteroides abscessus, 72 h
[16] = tested on: M. abscessus subsp. abscessus M199; experiment: microbe, parasite or virus in culture; format: cell-based, Mycobacterium abscessus; conditions: Mycobacteroides abscessus, 72 h
[17] = tested on: M. abscessus ATCC 19977 MXF_R3 (GyrA D96G); experiment: microbe, parasite or virus in culture; format: cell-based, Mycobacterium abscessus
[18] = tested on: M. abscessus Bamboo RM4 (GyrA D91G); experiment: microbe, parasite or virus in culture; format: cell-based, Mycobacterium abscessus; conditions: Mycobacteroides abscessus
[19] = tested on: M. abscessus subsp. bolletii M232; experiment: microbe, parasite or virus in culture; format: cell-based, Mycobacterium abscessus; conditions: Mycobacteroides abscessus, 72 h
[20] = tested on: nutrient-starved, nonreplicating M. abscessus Bamboo; experiment: MBC determination under nutrient-starved conditions; format: cell-based, Mycobacterium abscessus; conditions: Mycobacteroides abscessus, 48 h drug exposure
Experimental: The determination of drug bactericidal activity against nutrient-starved M. abscessus cultures was performed as previously described ([52]). […] Washed culture was then diluted with PBS/Tyloxapol to OD600 = 0.2 (1.8 × 10^7 CFU/ml). […] Appropriate concentrations of drugs up to 100 μM were added to the tubes prior to incubation at 37°C on a tilted rack in an orbital shaker at 220 rpm.

[21] = tested on: M. abscessus Bamboo; experiment: microbe, parasite or virus in culture; format: cell-based, Mycobacterium abscessus; conditions: Mycobacteroides abscessus
[22] = tested on: M. abscessus ATCC 19977 MXF_R2 (GyrA D96N); experiment: microbe, parasite or virus in culture; format: cell-based, Mycobacterium abscessus
[23] = tested on: M. intracellulare ATCC 13950; experiment: microbe, parasite or virus in culture; format: cell-based; conditions: Mycobacterium intracellulare, ATCC13950, 96 h
[24] = tested on: M. abscessus Bamboo RM2 (GyrA D91N); experiment: microbe, parasite or virus in culture; format: cell-based, Mycobacterium abscessus; conditions: Mycobacteroides abscessus
[25] = tested on: anaerobic, nonreplicating M. abscessus Bamboo; experiment: MBC determination under anaerobic conditions; format: cell-based, Mycobacterium abscessus; conditions: Mycobacteroides abscessus, 48 h drug exposure
[26] = tested on: M. abscessus subsp. abscessus M9; experiment: microbe, parasite or virus in culture; format: cell-based, Mycobacterium abscessus; conditions: Mycobacteroides abscessus, 72 h
[27] = tested on: M. abscessus Bamboo biofilms; experiment: Biofilm growth inhibition assay (biofilm MIC and MBC); format: cell-based, Mycobacterium abscessus; conditions: Mycobacteroides abscessus, Biofilm, M. abscessus Bamboo; for MBC: 10-fold reduction of CFU/peg vs 24 h; for MIC: 90% reduction of CFU/peg relative to drug-free biofilm growth, 48 h
Experimental: The biofilm growth inhibition assay was performed as previously described ([52]). Innovotech MBEC 96-well Biofilm Assay Plates (Innovotech 19111, Edmonton, AB, Alberta, Canada) were used, and the supplier’s manual was followed with minor modifications. Midlog phase M. abscessus Bamboo precultures (OD600 = 0.4–0.6) were spun down at 3,200 × g for 10 min at 25°C and washed with 7H9 medium without Tween 80 (7H9nt). Bacteria were resuspended into 25 ml 7H9nt to an OD600 = 0.0125 (1.0 × 10^6 CFU/ml). 150 μl of bacteria suspension was dispensed into each well of MBEC multititer plates and the polystyrene protrusions (pegs) of the MBEC lid were inserted into the culture-containing wells for 24 h at 37°C on an orbital shaker at 110 rpm to allow attachment of the bacteria to the pegs and initiation of biofilm growth. The lids with the pegs (now with 1-day-old biofilms) were transferred to new MBEC multititer plates containing 150 μl of fresh 7H9nt medium per well without bacteria (0 h time point). After that, the lids with biofilm-laden pegs were transferred once a day to a new multititer plate containing fresh 7H9nt medium. To measure growth of the biofilm formed on the peg, the pegs were washed in 200 μl of 7H9nt medium before they were aseptically removed and placed in 1.7 ml microcentrifuge tubes (VWR 87003-294, Rador, PA, United States) containing 500 μl PBS/Tween 80. The microcentrifuge tubes were vigorously vortexed at 2,000 rpm for 90 s at 25°C to detach the bacteria from the pegs before samples were serially diluted and plated for the determination of CFU/peg. […] The average drug-free biofilm growth was calculated by subtracting the average 24 h CFU/peg value from the average 72 h CFU/peg value for the untreated control pegs. The biofilm MIC was defined as the lowest drug concentration that reduced the CFU/peg by 90% relative to the average drug-free biofilm growth.

[28] = tested on: M. abscessus Bamboo; experiment: MIC and MBC determination in culture tubes (planktonic); format: cell-based, Mycobacterium abscessus; conditions: for MBC: 10-fold reduction in CFU/ml vs day 0; for MIC: 48 h, day 2
[29] = Mycobacteroides abscessus, ATCC19977

| SMILES | MIC [1] | MIC [2] | MIC [3] | MIC [4] | MIC [5] | MIC [6] | MIC [7, 29] | MIC ([8]; ATCC19977) | MIC ([8]; ATCC19977, 72 h) | MIC [9] | MIC [10] | MIC [11] | MIC [12] | MIC [13] | MIC [15] | MIC [16] | MIC [17, 29] | MIC [18] | MIC [19] | MIC [21] | also measured |
| --- | --- | --- | --- | --- | --- | --- | --- | --- | --- | --- | --- | --- | --- | --- | --- | --- | --- | --- | --- | --- | --- |
| CO[C@H]1/C=C/O[C@@]2(C)Oc3c(C)c(O)c4c(O)c(c(/C=N/N5CCN(C)CC5)c(O)c4c3C2=O)NC(=O)/C(C)=C\C=C\[C@H](C)[C@H](O)[C@@H](C)[C@@H](O)[C@@H](C)[C@H](OC(C)=O)[C@@H]1C [rifampin] | 0.66 µM (≈ 0.543 µg/mL) |  |  |  |  |  |  |  |  |  |  |  |  |  |  |  |  |  |  |  |  |
| CC[C@H]1OC(=O)[C@H](C)[C@@H](O[C@H]2C[C@@](C)(OC)[C@@H](O)[C@H](C)O2)[C@H](C)[C@@H](O[C@@H]2O[C@H](C)C[C@H](N(C)C)[C@H]2O)[C@](C)(OC)C[C@@H](C)C(=O)[C@H](C)[C@@H](O)[C@]1(C)O [CLR, clarithromycin] |  | 0.9 µM (≈ 0.673 µg/mL) | 0.19 µM (≈ 0.142 µg/mL) | 0.2 µM (≈ 0.15 µg/mL) | 0.27 µM (≈ 0.202 µg/mL) | 0.65 µM (≈ 0.486 µg/mL) | 1.5 µM (≈ 1.12 µg/mL) | 1.2 µM (≈ 0.898 µg/mL) | 0.9 µM (≈ 0.673 µg/mL) | 0.3 µM (≈ 0.224 µg/mL) | 0.24 µM (≈ 0.18 µg/mL) | 0.4 µM (≈ 0.299 µg/mL) | 2.5 µM (≈ 1.87 µg/mL) | 0.28 µM (≈ 0.209 µg/mL) | 0.24 µM (≈ 0.18 µg/mL) | 2.7 µM (≈ 2.02 µg/mL) | 0.34 µM (≈ 0.254 µg/mL) | 0.26 µM (≈ 0.194 µg/mL) | 0.95 µM (≈ 0.711 µg/mL) | 0.33 µM (≈ 0.247 µg/mL) | reduction in lung CFU ([14]; 250 mg/kg oral once daily for 10 days, EC/11716 reduction stated on par with it): ~1 log; MBC [20]: > 100 µM; MIC ([21]; 72 h): 0.23 µM (≈ 0.172 µg/mL); MIC [22, 29]: 0.73 µM (≈ 0.546 µg/mL); MIC [23]: 0.15 µM (≈ 0.112 µg/mL); MIC [24]: 0.29 µM (≈ 0.217 µg/mL); MBC [25]: > 100 µM; MIC [26]: 0.73 µM (≈ 0.546 µg/mL); MBC [27]: > 100 µM; MIC [27]: 1.6 µM (≈ 1.2 µg/mL); MBC [28]: >100 µM; MBC ([28]; Mycobacteroides abscessus, 0 h): > 100 µM; MIC ([28]; Mycobacteroides abscessus): 0.28 µM (≈ 0.209 µg/mL) |
| COc1c(N2C[C@@H]3CCCN[C@@H]3C2)c(F)cc2c(=O)c(C(=O)O)cn(C3CC3)c12 [MXF, moxifloxacin] | 0.6 µM (≈ 0.241 µg/mL) | 2.9 µM (≈ 1.16 µg/mL) | 8 µM (≈ 3.21 µg/mL) | 5 µM (≈ 2.01 µg/mL) | 47 µM (≈ 18.9 µg/mL) | 2.7 µM (≈ 1.08 µg/mL) | > 50 µM | 3.6 µM (≈ 1.45 µg/mL) | 3.6 µM (≈ 1.45 µg/mL) | 1.3 µM (≈ 0.522 µg/mL) | 20 µM (≈ 8.03 µg/mL) | 7.3 µM (≈ 2.93 µg/mL) | 6.3 µM (≈ 2.53 µg/mL) | 7.1 µM (≈ 2.85 µg/mL) | 6.7 µM (≈ 2.69 µg/mL) | 4.8 µM (≈ 1.93 µg/mL) | > 50 µM | 27 µM (≈ 10.8 µg/mL) | 3.2 µM (≈ 1.28 µg/mL) | 5.4 µM (≈ 2.17 µg/mL) | MIC [7]: >100 µM; reduction in lung CFU burden ([14]; 200 mg/kg oral once daily for 10 days, not statistically significant): 0.6 log; MIC [17]: 54 µM (≈ 21.7 µg/mL); MIC ([21]; 72 h): 4.6 µM (≈ 1.85 µg/mL); MIC [22]: 68 µM (≈ 27.3 µg/mL); MIC [22, 29]: > 50 µM; MIC [23]: 0.4 µM (≈ 0.161 µg/mL); MIC [24]: 42 µM (≈ 16.9 µg/mL); MIC [26]: 2.9 µM (≈ 1.16 µg/mL); MBC [27]: 25 µM (≈ 10 µg/mL); MIC [27]: 6 µM (≈ 2.41 µg/mL); MBC ([28]; Mycobacteroides abscessus, 0 h): 3.1 µM (≈ 1.24 µg/mL); MIC ([28]; Mycobacteroides abscessus): 1.9 µM (≈ 0.763 µg/mL) |
